Test results reported in EP0019589A1, “Tripeptide derivatives and their use in a process for determining enzymes” (Pentapharm A.G., priority 1979, dated 1980).
Non-standard residues stand in square brackets, D forms with d. Residues, ends and D or L forms follow the SMILES beside them. *: point of attachment. dCha = N[C@H](CC1CCCCC1)C(=O)O; dChg = N[C@@H](C(=O)O)C1CCCCC1; dPhg = N[C@@H](C(=O)O)c1ccccc1; pNA = O=[N+]([O-])c1ccc(N*)cc1; Chg = N[C@H](C(=O)O)C1CCCCC1; Phg = N[C@H](C(=O)O)c1ccccc1; Pip = O=C(O)[C@@H]1CCCCN1; dNva = CCC[C@@H](N)C(=O)O; dPip = O=C(O)[C@H]1CCCCN1; Nle = CCCC[C@H](N)C(=O)O

Experiments:
Format in all cases: biochemical
Humanthrombin = molecular target: T1, Humanthrombin (Homo sapiens, UniProt P00734); experiment: Cleavage of chromogenic substrate by human NIH thrombin; conditions: 1 NIH-Einheit human thrombin, per min; Substratkonzentration 2 x 10^-4 molar
T1 construct: Humanplasmin und hu-manem NIH-Thrombin
How it was run: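 Thrombin hydrolysis of chromogenic p-nitroanilide substrate read spectrophotometrically at 405 nm; fluorogenic naphthylamine, methylcoumarylamine or di(methoxycarbonyl)phenylamine substrates read continuously by fluorescence emission at 400-470 nm. Activity taken as product formed per unit time; 1 µmol product/min defined as 1 enzyme unit for a given substrate.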

[1] = molecular target: T2, Submandibularis-Kallikrein (Homo sapiens, UniProt P06870); experiment: Cleavage of chromogenic substrate by submandibular (glandular) kallikrein in human sputum; conditions: 1 ml human sputum, per min; Substratkonzentration 2 x 10^-4 molar
T2 construct: Man mischt 0,5 ml Sputum mit 2 ml TRIS-Imidazol-Puffer; from tissue; host or cells: human sputum
How it was run: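 Sputum mixed with TRIS-imidazole buffer (ionic strength 1.0), preincubated 5 min at 37°C and centrifuged; supernatant incubated with aqueous substrate solution (2 x 10^-3 M, stock). p-Nitroaniline release followed continuously at 405 nm for 5-10 min; activity expressed as mU per ml sputum from ΔOD/min.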

Humanplasmin = molecular target: T3, Humanplasmin (Homo sapiens, UniProt P00747); experiment: Cleavage of chromogenic substrate by human plasmin; conditions: 1 CU-Einheit human plasmin, per min; Substratkonzentration 2 x 10^-4 molar
T3 construct: da bei der Aktivierung aus 1 Molekül Plasminogen 1 Molekül Plasmin entsteht

Urinkallikrein = molecular target: T4, Urinkallikrein (Homo sapiens, UniProt P06870); experiment: Cleavage of chromogenic substrate by urinary kallikrein in human urine; conditions: 1 ml human urine (pooled morning urine of healthy persons), per min; Substratkonzentration 2 x 10^-4 molar
T4 construct: 1 ml Urin und 1 ml TRIS-Imidazol-Puffer mit pH 7,9; from tissue; host or cells: human urine
T4 sequence (P06870 25-262): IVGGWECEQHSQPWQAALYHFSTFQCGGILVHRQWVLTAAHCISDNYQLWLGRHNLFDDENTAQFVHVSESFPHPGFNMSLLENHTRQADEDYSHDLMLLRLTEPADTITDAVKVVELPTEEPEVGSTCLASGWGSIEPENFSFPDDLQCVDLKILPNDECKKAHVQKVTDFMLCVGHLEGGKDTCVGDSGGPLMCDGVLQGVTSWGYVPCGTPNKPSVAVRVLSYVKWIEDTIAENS

T3 sequence (P00747 581-810 limits assumed): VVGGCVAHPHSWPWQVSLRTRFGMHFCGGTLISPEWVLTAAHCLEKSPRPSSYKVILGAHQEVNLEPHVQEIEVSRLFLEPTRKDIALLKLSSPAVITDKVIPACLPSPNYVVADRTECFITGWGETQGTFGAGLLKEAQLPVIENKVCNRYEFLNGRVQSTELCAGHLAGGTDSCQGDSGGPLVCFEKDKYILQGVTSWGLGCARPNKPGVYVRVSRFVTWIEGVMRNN
T3 sequence (P00747 97-580 partner limits assumed): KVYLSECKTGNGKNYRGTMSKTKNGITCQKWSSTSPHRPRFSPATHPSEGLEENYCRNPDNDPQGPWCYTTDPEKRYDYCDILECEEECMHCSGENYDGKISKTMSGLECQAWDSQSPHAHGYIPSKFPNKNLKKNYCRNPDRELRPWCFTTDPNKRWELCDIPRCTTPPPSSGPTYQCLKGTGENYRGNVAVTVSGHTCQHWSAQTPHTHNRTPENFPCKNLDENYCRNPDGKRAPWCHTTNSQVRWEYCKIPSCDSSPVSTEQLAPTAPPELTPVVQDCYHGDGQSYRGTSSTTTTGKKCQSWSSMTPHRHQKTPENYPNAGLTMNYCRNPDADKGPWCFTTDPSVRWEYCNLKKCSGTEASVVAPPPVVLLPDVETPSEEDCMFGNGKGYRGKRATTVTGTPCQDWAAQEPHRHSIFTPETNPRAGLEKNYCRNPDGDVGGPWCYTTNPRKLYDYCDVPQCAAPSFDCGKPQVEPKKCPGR
T2 sequence (P06870 25-262): as the sequence (P06870 25-262) above

| Structure (SMILES) | Menge des durch 1 NIH-Einheit Thrombin pro Min. freigesetzten Spaltproduktes R-NH2 in Nanomol (Humanthrombin) (Humanthrombin) | Menge des durch 1 ml Humansputum pro Min. freigesetzten Spaltproduktes R-NH2 in Nanomol (Submandibularis-Kallikrein) [1] | Menge des durch 1 CU-Einheit Humanplasmin pro Min. freigesetzten Spaltproduktes R-NH2 in Nanomol (Humanplasmin) (Humanplasmin) [Nanomol] | Menge des durch 1 ml Humanurin pro Min. freigesetzten Spaltproduktes R-NH2 in Nanomol (Urinkallikrein) (Urinkallikrein) |
| --- | --- | --- | --- | --- |
| CC(C)C[C@H](NC(=O)[C@H](N)CC1CCCCC1)C(=O)N[C@@H](CCCNC(=N)N)C(=O)Nc1ccc([N+](=O)[O-])cc1 [Beispiel 52, 2HBr.H-D-CHA-Leu-Arg-pNA] (H-[dCha]-Leu-Arg-pNA) | 57,6 Nanomol | 8,8 Nanomol | 555 | 0,64 Nanomol |
| CC(C)C[C@@H](N)C(=O)N[C@H](C(=O)N[C@@H](CCCNC(=N)N)C(=O)Nc1ccc([N+](=O)[O-])cc1)c1ccccc1 [Beispiel 53, 2HBr.H-D-Leu-Ph'Gly-Arg-pNA] (H-[dL]-[Phg]-Arg-pNA) | 27,4 Nanomol | 25,8 Nanomol | 422 | 0,67 Nanomol |
| CCC[C@@H](N)C(=O)N[C@H](C(=O)N[C@@H](CCCNC(=N)N)C(=O)Nc1ccc([N+](=O)[O-])cc1)c1ccccc1 [Beispiel 54, 2HBr.H-D-Nval-Ph'Gly-Arg-pNA] (H-[dNva]-[Phg]-Arg-pNA) | 19,2 Nanomol | 22,9 Nanomol | 382 | 0,58 Nanomol |
| C[C@@H](N)C(=O)N[C@H](C(=O)N[C@@H](CCCNC(=N)N)C(=O)Nc1ccc([N+](=O)[O-])cc1)c1ccccc1 [Beispiel 55, 2HBr.H-D-Ala-Ph'Gly-Arg-pNA] (H-[dA]-[Phg]-Arg-pNA) | 4,2 Nanomol | 23,5 Nanomol | 141 | 0,42 Nanomol |
| N=C(N)NCCC[C@H](NC(=O)[C@@H](NC(=O)[C@H](N)CC1CCCCC1)c1ccccc1)C(=O)Nc1ccc([N+](=O)[O-])cc1 [Beispiel 56, 2HBr.H-D-CHA-Ph'Gly-Arg-pNA] (H-[dCha]-[Phg]-Arg-pNA) | 120,2 Nanomol | 29,4 Nanomol | 559 | 0,64 Nanomol |
| N=C(N)NCCC[C@H](NC(=O)[C@@H](NC(=O)[C@H](N)CC1CCC(O)CC1)c1ccccc1)C(=O)Nc1ccc([N+](=O)[O-])cc1 (stereo partly drawn) [Beispiel 57, 2HBr.H-D-CHT-Ph'Gly-Arg-pNA] | 112,1 Nanomol | 31,1 Nanomol | 591 | 0,45 Nanomol |
| N=C(N)NCCC[C@H](NC(=O)[C@@H](NC(=O)[C@H](N)C1CCCCC1)c1ccccc1)C(=O)Nc1ccc([N+](=O)[O-])cc1 [Beispiel 58, 2HBr.H-D-CHG-Ph'Gly-Arg-pNA] (H-[dChg]-[Phg]-Arg-pNA) | 63,7 Nanomol | 22,1 Nanomol | 446 | 0,38 Nanomol |
| N=C(N)NCCC[C@H](NC(=O)[C@@H](NC(=O)[C@H](N)C1CCCCC1)C1CCCCC1)C(=O)Nc1ccc([N+](=O)[O-])cc1 [Beispiel 59, 2HBr.H-D-CHG-CHG-Arg-pNA] (H-[dChg]-[Chg]-Arg-pNA) | 7,5 Nanomol | 5,9 Nanomol | 101 | 0,33 Nanomol |
| N=C(N)NCCC[C@H](NC(=O)[C@@H](NC(=O)[C@H]1CCCCN1)C1CCCCC1)C(=O)Nc1ccc([N+](=O)[O-])cc1 [Beispiel 60, 2HBr.H-D-Pip-CHG-Arg-pNA] (H-[dPip]-[Chg]-Arg-pNA) | 1,3 Nanomol | 1,4 Nanomol | 10 | 0 Nanomol |
| N=C(N)NCCC[C@H](NC(=O)[C@@H](NC(=O)[C@H](N)Cc1ccccc1)C1CCCCC1)C(=O)Nc1ccc([N+](=O)[O-])cc1 [Beispiel 61, 2HBr.H-D-Phe-CHG-Arg-pNA] (H-[dF]-[Chg]-Arg-pNA) | 3,7 Nanomol | 4,9 Nanomol | 60 | 0,33 Nanomol |
| N=C(N)NCCC[C@H](NC(=O)[C@@H](NC(=O)[C@H](N)c1ccccc1)C1CCCCC1)C(=O)Nc1ccc([N+](=O)[O-])cc1 [Beispiel 62, 2HBr.H-D-Ph'Gly-CHG-Arg-pNA] (H-[dPhg]-[Chg]-Arg-pNA) | 2,4 Nanomol | 7,2 Nanomol | 26 | 0,25 Nanomol |
| N=C(N)NCCC[C@H](NC(=O)[C@H](Cc1ccccc1)NC(=O)[C@H](N)c1ccccc1)C(=O)Nc1ccc([N+](=O)[O-])cc1 [Beispiel 63, 2HBr.H-D-Ph'Gly-Phe-Arg-pNA] (H-[dPhg]-Phe-Arg-pNA) | 2,4 Nanomol | 7,0 Nanomol | 841 | 0,42 Nanomol |
| N=C(N)NCCC[C@H](NC(=O)[C@H](Cc1ccccc1)NC(=O)[C@H](N)CC1CCCCC1)C(=O)Nc1ccc([N+](=O)[O-])cc1 [Beispiel 64, 2HBr.H-D-CHA-Phe-Arg-pNA] (H-[dCha]-Phe-Arg-pNA) | 25,8 Nanomol | 9,7 Nanomol | 1261 | 0,5 Nanomol |
| N=C(N)NCCC[C@H](NC(=O)[C@@H]1CCCCN1C(=O)[C@H](N)C1CCCCC1)C(=O)Nc1ccc([N+](=O)[O-])cc1 [Beispiel 65, 2HBr.H-D-CHG-Pip-Arg-pNA] (H-[dChg]-[Pip]-Arg-pNA) | 142,5 Nanomol | 14,2 Nanomol | 259 | 1,92 Nanomol |
| N=C(N)NCCC[C@H](NC(=O)[C@@H]1CCCCN1C(=O)[C@H](N)CC1CCCCC1)C(=O)Nc1ccc([N+](=O)[O-])cc1 [Beispiel 66, 2HBr.H-D-CHA-Pip-Arg-pNA] (H-[dCha]-[Pip]-Arg-pNA) | 114,2 Nanomol | 9,8 Nanomol | 228 | 0,53 Nanomol |
| CCCC[C@H](NC(=O)[C@H](N)C1CCCCC1)C(=O)N[C@@H](CCCNC(=N)N)C(=O)Nc1ccc([N+](=O)[O-])cc1 [Beispiel 67, 2HBr.H-D-CHG-Nleu-Arg-pNA] (H-[dChg]-[Nle]-Arg-pNA) | 41,0 Nanomol | 13,5 Nanomol | 739 | 0,53 Nanomol |
| CCCC[C@H](NC(=O)[C@H](N)CC1CCCCC1)C(=O)N[C@@H](CCCNC(=N)N)C(=O)Nc1ccc([N+](=O)[O-])cc1 [Beispiel 68, 2HBr.H-D-CHA-Nleu-Arg-pNA] (H-[dCha]-[Nle]-Arg-pNA) | 77,6 Nanomol | 15,0 Nanomol | 899 | 0,45 Nanomol |
